test system: histamine induced gastric acid secretion; assay: inhibition of histamine induced gastric acid secretion in the perfused rat stomach preparation; type: in vivo; settings: sodium pentobarbitone anaesthesia
Source text: Certain novel heterocyclic derivatives having a structure different from the compounds referred to above, have now been found which have potent activity as H2-antagonists.
The results obtained for a representative number of compounds according to the invention are given below: […]

Row | SMILES | ED50
1 | Cn1nc(N)nc1NCCCOc1cccc(CNCc2ccco2)c1 [1 (b), 1-methyl-N^5-[3-[3-[(2-furanylmethyl)aminomethyl]phenoxy]propyl)-1H-1,2,4-triazole-3,5-diamine] | 0.095 mg/kg
2 | CCCCCCCCCCCCNCc1cccc(OCCCNc2nc(N)nn2C)c1 [1 (d), 1-methyl-N^5-[3-[3-[(dodecylamino)methyl]phenoxy]-propyl]-1H-1,2 4-triazoie-3,5-diamine] | 0.075 mg/kg
3 | CCCCNC(=O)CCCCCNCc1cccc(OCCCNc2nc(N)nn2C)c1 [1 (g)] | 0.25 mg/kg
4 | Cn1nc(N)nc1NCCCOc1cccc(CNCc2ccc[nH]2)c1 [2 (d), 1-methyl-N5-[3-[3-[(1H-pyrrol-2-yl-methyl)amino-methyl]phenoxy]propyl]-1H-1,2,4-triazole-3,5-diamine] | 0.014 mg/kg
5 | Cn1nc(N)nc1NCCCOc1cccc(CNCc2ccc(CO)o2)c1 [Example 2 (a), 5-[[3-[3-[(3-Amino-1-methyl-1,2,4-triazol-5-yl)-amino]propoxy]phenylmethyl]aminomethyl]furan-2-methanol] | 0.19 mg/kg
6 | Cn1nc(N=Cc2ccncc2)nc1NCCCOc1cccc(CNCc2ccco2)c1 [Example 5, 1-Methyl-N3-(4-pyridylmethylene)-N^5-[3-[3-[(2-furanylmethyt)-aminomethyl)phenoxy]propyl]-1 H-1,2,4-triazole-3,5-diamine] | 0.18 mg/kg
7 | CN(Cc1ccco1)Cc1ccc(CSCCNc2nc(CO)nn2C)o1 [Example 6, 5-[[2-[[[5-[[N-Methyl(2-furanylmethyl)amino]methyl]-2-furanyl]methyl]thio]ethyl]amino]-1-methyl-1 H-1,2,4-triazole-3-methanol] | 0.077 mg/kg

From EP0029303B1, “1,2,4-Triazole derivatives, processes for their production and pharmaceutical compositions containing them” (GLAXO GROUP LIMITED, priority 1979, dated 1981)
